Data set [1] concerns MUTU-1 Burkitt's lymphoma cell line. Description: FITC Annexin V/PI FACS analysis of apoptosis in MUTU-I cells. It counts as cell-based. As to conditions: 24 h. As to the method: (§1) BL cells DG-75 and MUTU-1 (750,000) were treated with the specified concentration of the selected compound and incubated for 24 h (MUTU-1) or 48 h (DG-75) with taxol as the positive control. Samples were harvested by centrifugation and the pellets were rinsed with 0.5 mL of Ca^2+ Annexin V binding buffer (0.1 M HEPES, pH 7.4; 1.4 M NaCl; 25 mM CaCl2) each and pelleted again by centrifugation. Supernatants were decanted and the pellets were suspended again in 50 µL FITC Annexin V (diluted 1:33 in Ca^2+ Annexin V binding buffer), the samples were then placed on ice and incubated for 10 min in the dark. After the incubation period 0.5 mL of Ca^2+ Annexin V binding buffer was added and samples were pelleted by centrifugation. The supernatant was decanted and the pellet was suspended in PI solution (500 µL; 0.5 µg/mL). After 1 h, the samples were recorded using a CyAn ADP flow cytometer (Beckman Coulter Inc., Brea, CA, USA). 10,000 cells were analysed with the Flowjo software package. Taxol was used as a positive control for cell death.

For data set [2], the system named is DG-75 Burkitt's lymphoma cell line. Description: FITC Annexin V/PI FACS analysis of apoptosis in DG-75 cells. In kind it is cell-based. Particulars: 48 h. As to the method: as §1
Data set [3] concerns MUTU-1 Burkitt lymphoma cell line (EBV+). Particulars: 24 h.
For data set [4], the system named is DG-75 Burkitt lymphoma cell line (EBV−, chemoresistant). As to conditions: 48 h.
In data set [5] the test system is MUTU-1 Burkitt lymphoma cell line (EBV+). Description: cells. Particulars: Mutu-1, 24 h; for IC50: read-out: IC50 MUTU-I 24 h; for viability at 1 µM: read-out: MUTU-1 Cell Viability % 1 μM, 1 μM, 24 h; for viability at 10 µM: read-out: MUTU-1 Cell Viability % 10 μM, 10 μM, 24 h.
The test system of data set [6] is DG-75 Burkitt lymphoma cell line (EBV−, chemoresistant). Description: cells. Particulars: Homo sapiens, DG-75, 48 h; for viability at 1 µM: read-out: DG-75 Cell Viability % 1 μM, 1 μM, 48 h; for viability at 10 µM: read-out: DG-75 Cell Viability % 10 μM, 10 μM, 48 h; for IC50: read-out: IC50 DG-75 48 h.

Where only a bound is given, the exact number is not on record here.

This is an account of results in PMC7168933, “Design, Synthesis and Biochemical Evaluation of Novel Ethanoanthracenes and Related Compounds to Target Burkitt’s Lymphoma” (Pharmaceuticals, 2020).

As usually defined, the IC50 is the concentration needed to halve the response being measured. Broadly, the viability is a read-out of living cells in per cent, often relative to untreated cells. Consider `O=[N+]([O-])/C=C/c1c2ccccc2cc2ccccc12` [Compound 12a, (E)-9-(2-nitrovinyl)anthracene], for which, in data set [1], the “apoptosis in MUTU-I at 1 µM” value is “little effect” and the “apoptosis in MUTU-I at 10 µM” value was 90%. In data set [2], the “apoptosis in DG-75 at 1 µM” value is recorded as 10% and the “apoptosis in DG-75 at 10 µM” value amounted to 82%. Also, the “MUTU-1 Cell Viability % 10 μM” value in data set [3] is recorded as 5.9%. For the same compound, the “DG-75 Cell Viability % 10 μM” value in data set [4] stood at 14.0%. In data set [5], the IC50 worked out at 2570 nM and the viability at 1 µM was found to be 81.9%. Also, in data set [6], the viability at 1 µM was 94.6%, the viability at 10 µM was under 14% and the IC50 amounted to 2080 nM.

By melting point is commonly meant the temperature of the solid-liquid transition. Consider `O=C1OC(=O)C2C1C1c3ccccc3C2(/C=C/[N+](=O)[O-])c2ccccc21` (centres unmarked) [Compound 13a, (E)-9-(2-Nitrovinyl)-9,10-dihydro-9,10-[3,4]furanoanthracene-12,14-dione], for which the melting point was 244 to 245 °C. For the same compound, the “cell viability in MUTU-I cell line (1 and 10 μM together or concentration not stated)” value in data set [3] is recorded as 7–24%. Besides, in data set [5], the viability at 1 µM stood at 24.4% and the viability at 10 µM stood at 12.5%. Also, in data set [6], the viability at 1 µM came to 78.5% and the viability at 10 µM came out at 62.2%.

For `C/C(=C\C12c3ccccc3C(c3ccccc31)C1C(=O)OC(=O)C12)[N+](=O)[O-]` (centres unmarked) [Compound 13b, (E)-9-(2-Nitroprop-1-en-1-yl)-9,10-dihydro-9,10-[3,4]furanoanthracene-12,14-dione], the melting point lay within 256 to 258 °C. Further, in data set [3], the “cell viability in MUTU-I cell line (1 and 10 μM together or concentration not stated)” value is 7–24%. Besides, in data set [4], the “DG-75 Cell Viability % 1 μM” value is listed as 1.1%. For the same compound, in data set [5], the viability at 1 µM is 11.7% and the viability at 10 µM was found to be 7.2%. Moreover, in data set [6], the viability at 1 µM stood at 1% and the viability at 10 µM worked out at 0.47%.

Regarding `O=C1NC(=O)C2C1C1c3ccccc3C2(/C=C/[N+](=O)[O-])c2ccccc21` (centres unmarked) [Compound 13g, (E)-9-(2-Nitrovinyl)-9,10-dihydro-9,10-[3,4]epipyrroloanthracene-12,14-dione], the melting point is 176 to 178 °C. Besides, in data set [4], the “DG-75 Cell Viability % 1 μM” value is 1.1%. Besides, in data set [5], the viability at 1 µM worked out at 0.47% and the viability at 10 µM was 7.2%. Further, in data set [6], the viability at 1 µM amounted to 1% and the viability at 10 µM stood at 11.7%.

In the case of `O=C1NC(=O)C2C1C1(Cl)c3ccccc3C2(C=C[N+](=O)[O-])c2ccccc21` (centres unmarked) [Compound 13j, (E)-9-Chloro-10-(2-nitrovinyl)-9,10-dihydro-9,10-[3,4]epipyrroloanthracene-12,14-dione], the “apoptosis in MUTU-I at 0.5 µM” value in data set [1] is recorded as over 90%. The “apoptosis in DG-75 at 10 µM” value in data set [2] is 90%. Besides, in data set [3], the “MUTU-1 Cell Viability % 1 μM” value is listed as 0.70%; the “cell viability in MUTU-I cell line (1 and 10 μM together or concentration not stated)” value was 0.4–13.5%. In data set [4], the “cell viability in DG-75 cell line (1 and 10 μM together or concentration not stated)” value is on record as 0.4–13.5%. In data set [5], the IC50 was 250 nM, the viability at 1 µM is under 1% and the viability at 10 µM is 0.62%. In addition, in data set [6], the viability at 1 µM turned out to be 12.1%, the viability at 10 µM was found to be 5.9% and the IC50 was found to be 780 nM.

`CN1C(=O)C2C3c4ccccc4C(/C=C/[N+](=O)[O-])(c4ccccc43)C2C1=O` (centres unmarked) [Compound 13m, (E)-13-Methyl-9-(2-nitrovinyl)-9,10-dihydro-9,10-[3,4]epipyrroloanthracene-12,14-dione] had a melting point of 267 to 268 °C. Moreover, the “MUTU-1 Cell Viability % 1 μM” value in data set [3] was 0%. Besides, in data set [5], the IC50 was 320 nM and the viability at 10 µM worked out at 7.4%. Besides, in data set [6], the viability at 1 µM was determined as 38.1% and the viability at 10 µM is 0.93%.

In turn, `O=C1C2C3c4ccccc4C(/C=C/[N+](=O)[O-])(c4ccccc43)C2C(=O)N1CO` (centres unmarked) [Compound 13n, (E)-13-(Hydroxymethyl)-9-(2-nitrovinyl)-9,10-dihydro-9,10-[3,4]epipyrroloanthracene-12,14-dione] came in with a melting point of 230 to 232 °C. Moreover, the “MUTU-1 Cell Viability % 1 μM” value in data set [3] worked out at 0%. In data set [5], the viability at 10 µM worked out at 1.8%. In data set [6], the viability at 1 µM came to 74.6% and the viability at 10 µM turned out to be 20.4%.

Consider `O=C1C2C(C(=O)N1c1ccccc1)C1(/C=C/[N+](=O)[O-])c3ccccc3C2(Cl)c2ccccc21` (centres unmarked) [Compound 16d, (E)-9-Chloro-10-(2-nitrovinyl)-13-phenyl-9,10-dihydro-9,10-[3,4]epipyrroloanthracene-12,14-dione], for which the “apoptosis in MUTU-I at 0.2 µM” value in data set [1] (0.2 µM) is recorded as 63%. Moreover, in data set [2], the “apoptosis in DG-75 at 1 µM” value is reported as 15% and the “apoptosis in DG-75 at 10 µM” value is 44%. The “cell viability in MUTU-I cell line (1 and 10 μM together or concentration not stated)” value in data set [3] is given as 0.4–13.5%. Also, in data set [4], the “DG-75 Cell Viability % 1 μM” value came out at 13.5%; the “cell viability in DG-75 cell line (1 and 10 μM together or concentration not stated)” value is recorded as 0.4–13.5%. Also, in data set [5], the IC50 was determined as 220 nM, the viability at 1 µM was 0.77% and the viability at 10 µM came to 0.41%. In addition, in data set [6], the viability at 1 µM is under 14%, the viability at 10 µM is 5.1% and the IC50 stood at 590 nM.

On to `N#CC1CC2c3ccccc3C1(/C=C/[N+](=O)[O-])c1ccccc12` (centres unmarked) [Compound 19a, (E)-10-(2-Nitrovinyl)-9,10-dihydro-9,10-ethanoanthracene-11-carbonitrile], for which, in data set [1], the “apoptosis in MUTU-I at 0.5 µM” value is over 90%. Also, the “apoptosis in DG-75 at 10 µM” value in data set [2] was 87%. In data set [5], the IC50 is 380 nM, the viability at 1 µM stood at 9% and the viability at 10 µM is 0%. Also, in data set [6], the viability at 1 µM came to 20.6%, the viability at 10 µM amounted to 0% and the IC50 was 690 nM.

`O=[N+]([O-])C=CC12c3ccccc3C(Cl)(c3ccccc31)c1ccccc12` [Compound 20d, (E)-9-Chloro-10-(2-nitrovinyl)-9,10-dihydro-9,10-[1,2]benzenoanthracene] displayed a melting point of 259 to 261 °C. Also, in data set [3], the “cell viability in MUTU-I cell line (1 and 10 μM together or concentration not stated)” value was under 6%. In addition, in data set [5], the IC50 turned out to be 280 nM, the viability at 1 µM turned out to be 0.95% and the viability at 10 µM came out at 0.34%. Besides, in data set [6], the viability at 1 µM amounted to 46% and the viability at 10 µM is 0%.

As for `O=CC12c3ccccc3C(c3ccccc31)c1ccccc12` [Compound 20f], the “MUTU-1 Cell Viability % 10 μM” value in data set [3] was found to be 5.4%. Moreover, in data set [5], the viability at 1 µM was 97.9% and the viability at 10 µM is under 5%. Further, in data set [6], the viability at 1 µM is 72.9% and the viability at 10 µM stood at 81.7%.

Turning to `OCC12c3ccccc3C(c3ccccc31)c1ccccc12` [Compound 20g], the “cell viability in MUTU-I cell line (1 and 10 μM together or concentration not stated)” value in data set [3] was “inactive”. For the same compound, in data set [5], the viability at 1 µM turned out to be 101% and the viability at 10 µM was determined as 103%. Also, in data set [6], the viability at 1 µM was found to be 97% and the viability at 10 µM worked out at 68.7%.

Consider `N#C/C=C/C12c3ccccc3C(c3ccccc31)C1C(=O)NC(=O)C12` (centres unmarked) [Compound 23b, (E)-3-(12,14-Dioxo-9,10-[3,4]epipyrroloanthracen-9(10H)-yl)acrylonitrile], for which the melting point was in the range of 289 to 300 °C. Besides, the “DG-75 Cell Viability % 10 μM” value in data set [4] is 54.1%. In addition, in data set [5], the viability at 1 µM turned out to be 79.4% and the viability at 10 µM was found to be 79%. Besides, in data set [6], the viability at 1 µM is 101% and the viability at 10 µM is 54%.

In turn, `N/N=C/C12c3ccccc3C(Cl)(c3ccccc31)C1C(=O)NC(=O)C12` (centres unmarked) [Compound 23i, (E)-9-Chloro-10-(hydrazonomethyl)-9,10-dihydro-9,10-[3,4]epipyrroloanthracene-12,14-dione] showed a melting point of 241 to 244 °C. In addition, the “DG-75 Cell Viability % 10 μM” value in data set [4] amounted to 18.9%. Besides, in data set [5], the viability at 1 µM was found to be 102% and the viability at 10 µM was 106%. In addition, in data set [6], the viability at 1 µM was found to be 85.8% and the viability at 10 µM was 19%.

With `CC(=O)O[C@H]1C(=O)[C@@]2(C)[C@H]([C@H](OC(=O)c3ccccc3)[C@]3(O)C[C@H](OC(=O)[C@H](O)[C@@H](NC(=O)c4ccccc4)c4ccccc4)C(C)=C1C3(C)C)[C@]1(OC(C)=O)CO[C@@H]1C[C@@H]2O` [Taxol, taxol, reference compound], in data set [1], the “apoptosis in MUTU-I at 1 µM” value is 63% and the “apoptosis in MUTU-I at 10 µM” value is listed as 87%. Moreover, in data set [2], the “apoptosis in DG-75 at 1 µM” value was 21% and the “apoptosis in DG-75 at 10 µM” value is listed as 73%. Further, in data set [3], the “MUTU-1 Cell Viability % 10 μM” value stood at 9.8%. Further, in data set [4], the “DG-75 Cell Viability % 10 μM” value amounted to 9.9%. Also, in data set [5], the IC50 was 320 nM, the viability at 1 µM was determined as 30.4% and the viability at 10 µM is 10%. Also, in data set [6], the viability at 1 µM worked out at 48.8%, the viability at 10 µM came out at 10% and the concentration for half-maximal inhibition (IC50) was 1320 nM.
